These results are taken from the supplement of paper PMC9663587.

Some results are limits rather than exact numbers.
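For GR50, 72 h in this document: breast cancer and non-malignant breast epithelial cell lines, Deep Dye Drop or Dye Drop imaging, nine half-log doses, GR normalized to time-zero plates and DMSO-only controls.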

Compound in one experiment: T1, CC(=O)c1c(C)c2cnc(Nc3ccc(N4CCN(CCOCCOCCOCCNC(=O)COc5cccc6c5C(=O)N(C5CCC(=O)NC5=O)C6=O)CC4)cn3)nc2n(C2CCCC2)c1=O [BSJ-03-123]
Assay: not given
Conditions: not given
For BT20, the “GR50, 72 h” value came to 0.386 µM.
For the cell line BT474, the “GR50, 72 h” value stood at 0.235 µM.
On the same count and under the same terms, under BT549 stands 6.36 µM; under CAL51, 4.36 µM; under CAL120, 5.27 µM.
In the case of CAMA1, the “GR50, 72 h” value came to 0.00879 µM.

Compound in the next experiment: CC1=CN2C(=O)C=C(N=C2C(=C1)C(C)NC3=CC=CC=C3)N4CCOCC4 [TGX221]
Assay: not given
Conditions: not given
For BT20, the “GR50, 72 h” value is more than 10 µM.
Turning to BT474, the “GR50, 72 h” value was more than 10 µM.
Consider BT549, for which the “GR50, 72 h” value is more than 10 µM.
Same read-out and setting: the figure for CAL51 is more than 10 µM.
On the same count and under the same terms, the figure for CAL120 is more than 10 µM; for CAMA1 it is more than 10 µM.

Compound in the next experiment: CCOc1cc2ncc(C#N)c(Nc3ccc(OCc4ccccn4)c(Cl)c3)c2cc1NC(=O)/C=C/CN(C)C [Neratinib/HKI272]
Assay: not given
Conditions: not given
As to BT20, the “GR50, 72 h” value was determined as 1.27 µM.
For the cell line BT474, the “GR50, 72 h” value was determined as 0.00166 µM.
For the cell line BT549, the “GR50, 72 h” value was determined as 1.99 µM.
Turning to CAL51, the “GR50, 72 h” value came to 2.25 µM.
CAL120: the “GR50, 72 h” value was found to be 0.585 µM.
For the cell line CAMA1, the “GR50, 72 h” value is 2.83 µM.

Compound in a further experiment: CN(C)C/C=C/C(=O)Nc1ccc(C(=O)Nc2cccc(Nc3ncc(Cl)c(-c4c[nH]c5ccccc45)n3)c2)cc1 [THZ1]
Assay: not given
Conditions: not given
In the case of BT20, the “GR50, 72 h” value is 0.499 µM.
The same measure, in the same setting: under BT474 stands 0.0129 µM.
Regarding BT549, the “GR50, 72 h” value amounted to 0.0528 µM.
On the same count and under the same terms, under CAL51 stands 0.385 µM.
With CAL120, the “GR50, 72 h” value worked out at 0.0579 µM.
Still for that read-out and setting: under CAMA1 stands 0.0336 µM.

Compound in another experiment: CN(C)C/C=C/C(=O)Nc1ccc(O[C@@H]2CCC[C@@H](Nc3ncc(Cl)c(-c4c[nH]c5ccccc45)n3)C2)cc1 [BSJ-01-175]
Assay: not given
Conditions: not given
With BT20, the “GR50, 72 h” value was 0.0388 µM.
With BT474, the “GR50, 72 h” value was 0.0747 µM.
Same read-out and setting: the figure for BT549 is 0.737 µM; for CAL51 it is 0.432 µM; for CAL120 it is 0.0411 µM.
The same measure, in the same setting: under CAMA1 stands 0.101 µM.

Compound in another experiment: CN(C)CC[C@H](CSc1ccccc1)Nc1ccc(S(=O)(=O)NC(=O)c2ccc(N3CCN(Cc4ccccc4-c4ccc(Cl)cc4)CC3)cc2)cc1[N+](=O)[O-] [ABT-737]
Assay: not given
Conditions: not given
For BT20, the “GR50, 72 h” value is more than 10 µM.
In the case of BT474, the “GR50, 72 h” value was found to be 5.21 µM.
Same read-out and setting: under BT549 stands more than 10 µM; under CAL51, more than 10 µM; under CAL120, 2.15 µM.
On the same count and under the same terms, the figure for CAMA1 is more than 10 µM.

Compound in another experiment: CN1CCN(CCOc2cc(OC3CCOCC3)c3c(Nc4c(Cl)ccc5c4OCO5)ncnc3c2)CC1 [Saracatinib/AZD0530]
Assay: not given
Conditions: not given
With BT20, the “GR50, 72 h” value was determined as 4.37 µM.
Same read-out and setting: the figure for BT474 is 0.896 µM; for BT549 it is more than 10 µM.
On the same count and under the same terms, the figure for CAL51 is 1.85 µM; for CAL120 it is more than 10 µM; for CAMA1 it is more than 10 µM.

Compound in another experiment: CN1CC[C@H](c2c(O)cc(O)c3c(=O)cc(-c4ccccc4Cl)oc23)[C@H](O)C1 [Flavopiridol]
Assay: not given
Conditions: not given
Consider BT20, for which the “GR50, 72 h” value stood at 0.11 µM.
As for BT474, the “GR50, 72 h” value is 0.208 µM.
Same read-out and setting: under BT549 stands 0.161 µM; under CAL51, 0.2 µM.
Still for that read-out and setting: under CAL120 stands 0.209 µM; under CAMA1, 0.178 µM.

Compound in the next experiment: CNCc1ccc(-c2[nH]c3cc(F)cc4c3c2CCNC4=O)cc1 [Rucaparib]
Assay: not given
Conditions: not given
For the cell line BT20, the “GR50, 72 h” value is more than 10 µM.
Turning to BT474, the “GR50, 72 h” value was more than 10 µM.
Still for that read-out and setting: the figure for BT549 is more than 10 µM.
For CAL51, the “GR50, 72 h” value is more than 10 µM.
Take CAL120: the “GR50, 72 h” value was more than 10 µM.
Take CAMA1: the “GR50, 72 h” value was more than 10 µM.

Compound in a further experiment: COc1ccc2c(c1)[C@]1(C[C@H]1c1ccc3c(/C=C/c4ccc(CN5C[C@@H](C)O[C@@H](C)C5)cc4)n[nH]c3c1)C(=O)N2
Assay: not given
Conditions: not given
In the case of BT20, the “GR50, 72 h” value stood at 0.00274 µM.
On the same count and under the same terms, the figure for BT474 is 0.0122 µM; for BT549 it is 0.00315 µM.
The same measure, in the same setting: under CAL51 stands 0.00556 µM; under CAL120, 0.00365 µM.
Still for that read-out and setting: the figure for CAMA1 is 0.00356 µM.

Compound in a further experiment: C=CC(=O)Nc1ccc(C(=O)Nc2[nH]nc3c2CN(C(=O)N[C@H](CN(C)C)c2ccccc2)C3(C)C)cc1 [YKL-5-124]
The experiment is described as follows: GR value, 72 h; higher = faster growth (1 = untreated, <0 = killing).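 Also: breast cancer and non-malignant breast epithelial lines, nine half-log doses, viable cells counted by Hoechst and LIVE/DEAD dye imaging versus time-zero plates and DMSO controls.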 The conditions noted are these: 0.001 µM.
For BT20, the GR value worked out at 0.835 GR.
For the cell line BT474, the GR value came to 0.506 GR.
On the same count and under the same terms, the figure for BT549 is 0.747 GR; for CAL51 it is 0.748 GR.
Regarding CAL120, the GR value is 0.776 GR.
On the same count and under the same terms, the figure for CAMA1 is 0.224 GR.

Staying with this experiment, now noted: 0.003162 µM.
For the cell line BT20, the GR value was 0.664 GR.
Take BT474: the GR value amounted to 0.225 GR.
Same read-out and setting: under BT549 stands 0.497 GR; under CAL51, 0.59 GR.
The same measure, in the same setting: the figure for CAL120 is 0.599 GR; for CAMA1 it is 0.229 GR.

The same experiment, now with this note: 0.01 µM.
Consider BT20, for which the GR value came out at 0.432 GR.
Still for that read-out and setting: under BT474 stands 0.197 GR.
Turning to BT549, the GR value was determined as 0.301 GR.
Still for that read-out and setting: under CAL51 stands 0.391 GR; under CAL120, 0.467 GR.
CAMA1: the GR value was 0.0682 GR.

The experiment is the same for the next values; noted with them: 0.03162 µM.
Consider BT20, for which the GR value was 0.395 GR.
BT474: the GR value was found to be 0.179 GR.
For the cell line BT549, the GR value worked out at 0.125 GR.
The same measure, in the same setting: under CAL51 stands 0.327 GR.
As to CAL120, the GR value amounted to 0.385 GR.
The same measure, in the same setting: under CAMA1 stands 0.0899 GR.

The same experiment, now with this note: 0.1 µM.
Consider BT20, for which the GR value was 0.219 GR.
Same read-out and setting: under BT474 stands -0.0193 GR.
On the same count and under the same terms, under BT549 stands 0.0904 GR.
As for CAL51, the GR value stood at 0.314 GR.
The same measure, in the same setting: the figure for CAL120 is 0.377 GR; for CAMA1 it is 0.0659 GR.

The same experiment, now with this note: 0.3162 µM.
Regarding BT20, the GR value stood at 0.229 GR.
The same measure, in the same setting: under BT474 stands -0.106 GR; under BT549, 0.0362 GR; under CAL51, 0.236 GR.
The same measure, in the same setting: under CAL120 stands 0.313 GR.
Turning to CAMA1, the GR value was -0.0547 GR.

Staying with this experiment, now noted: 1 µM.
For BT20, the GR value came out at 0.13 GR.
BT474: the GR value was -0.16 GR.
Still for that read-out and setting: the figure for BT549 is -0.0144 GR; for CAL51 it is 0.216 GR.
Take CAL120: the GR value was 0.328 GR.
The same measure, in the same setting: under CAMA1 stands 0.0323 GR.

The experiment is the same for the next values; noted with them: 3.162 µM.
Turning to BT20, the GR value is 0.0428 GR.
For BT474, the GR value is -0.0451 GR.
As for BT549, the GR value was -0.0731 GR.
Still for that read-out and setting: the figure for CAL51 is 0.165 GR; for CAL120 it is 0.324 GR.
With CAMA1, the GR value is 0.0041 GR.

The experiment is the same for the next values; noted with them: 10 µM.
As to BT20, the GR value is -0.116 GR.
As for BT474, the GR value was -0.519 GR.
On to BT549, for which the GR value is -0.58 GR.
Regarding CAL51, the GR value was -0.0011 GR.
Still for that read-out and setting: under CAL120 stands 0.187 GR; under CAMA1, -0.591 GR.

Compound in another experiment: T1, BSJ-03-123
The experiment is described as above. To be noted: 0.001 µM.
BT20: the GR value is 0.934 GR.
Same read-out and setting: under BT474 stands 1.01 GR; under BT549, 0.998 GR.
Same read-out and setting: under CAL51 stands 0.894 GR; under CAL120, 0.923 GR.
Regarding CAMA1, the GR value was found to be 0.778 GR.

Still in this experiment, the particulars now being: 0.003162 µM.
Regarding BT20, the GR value was 0.738 GR.
Turning to BT474, the GR value was found to be 0.599 GR.
Same read-out and setting: the figure for BT549 is 0.999 GR.
